Values quoted from earlier work, collected in patent publication US20070015686A1, “Dietary supplement for enhancing skeletal muscle mass, decreasing muscle protein degradation, downregulation of muscle catabolism pathways, and decreasing catabolism of muscle cells” (priority 2005, published 2007).

Tests used:
[1] = ingestion of a concomitant carbohydrate
[2] = biological target: T1, chymotrypsin-like activity of the proteasome complex (Homo sapiens, UniProt P28074); details: in vitro and in vivo; concentrations found in the serum of green tea drinkers
T1 sequence (P28074 60-263): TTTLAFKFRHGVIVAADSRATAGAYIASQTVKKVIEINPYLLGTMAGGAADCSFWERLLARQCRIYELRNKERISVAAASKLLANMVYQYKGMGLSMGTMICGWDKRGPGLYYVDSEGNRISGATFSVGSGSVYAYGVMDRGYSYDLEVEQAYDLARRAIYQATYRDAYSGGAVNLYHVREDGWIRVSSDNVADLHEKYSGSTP

[3] = laboratory tests; greater than vitamin C and vitamin E
NF-κβ = details: following administration, during inflammation and infection

Which “Creatine retention, increased efficiency” value [1] does the source give for `CN(CC(=O)O)C(=N)N` [Creatine, N-methyl-N-guanyl Glycine] here?
The value was “up to 60%”.

With `O=C(O[C@@H]1Cc2c(O)cc(O)cc2O[C@@H]1c1ccc(O)c(O)c1)c1cc(O)c(O)c(O)c1` [ECG, epicatechin gallate] as the compound, how does the “inhibition of the chymotrypsin-like activity of the proteasome complex” value [2] read?
Its value is “potent specific inhibitors”.

What does the source list for `O=C(O[C@@H]1Cc2c(O)cc(O)cc2O[C@@H]1c1cc(O)c(O)c(O)c1)c1cc(O)c(O)c(O)c1` [EGCG, epigallocatechin gallate]?
inhibition of the chymotrypsin-like activity of the proteasome complex [2]: potent specific inhibitors; antioxidant activity [3]: potent antioxidant activity

For `CC1=C(/C=C/C(C)=C/C=C/C(C)=C/C=C/C=C(C)/C=C/C=C(C)/C=C/C2=C(C)C(=O)[C@@H](O)CC2(C)C)C(C)(C)C[C@H](O)C1=O` [astaxanthin], which “NF-κβ activation / nuclear translocation” value (NF-κβ) is on record?
Its value is “decreased NF-κβ activation”.

Which insulin-releasing activity (pancreatic β-cells) does the source give for `CC(C)=C[C@H]1C[C@](O)([C@H]2CC[C@]3(C)[C@H]2CCC2[C@@]4(C)CC[C@H](O[C@@H]5OC[C@@H](O)[C@H](O[C@@H]6O[C@H](CO)[C@@H](O)[C@H](O)[C@H]6O)[C@@H]5O[C@H]5O[C@H](C)[C@@H](O)[C@H](O)[C@@H]5O)C(C)(C)C4CC[C@]23C)[C@H](O)O1` (stereo partly shown) [phanoside] here?
Its insulin-releasing activity is “potent insulin-releasing activity”.

With `O=C(OC[C@H]1O[C@@H](OC(=O)c2cc(O)c(O)c(OC(=O)c3cc(O)c(O)c(O)c3)c2)[C@H](OC(=O)c2cc(O)c(O)c(OC(=O)c3cc(O)c(O)c(O)c3)c2)[C@@H](OC(=O)c2cc(O)c(O)c(OC(=O)c3cc(O)c(O)c(O)c3)c2)[C@@H]1OC(=O)c1cc(O)c(O)c(OC(=O)c2cc(O)c(O)c(O)c2)c1)c1cc(O)c(O)c(OC(=O)c2cc(O)c(O)c(O)c2)c1` [tannic acid] as the compound, how does the “inhibition of the chymotrypsin-like activity of the proteasome complex” value [2] read?
The value was “potent specific inhibitors”.
